Structures are written as SMILES.

This experiment concerns the target human HSP90a (recombinant N-terminal nucleotide binding domain) (Homo sapiens (Human), UniProt P07900). Kind of experiment: Competition fluorescence polarization binding assay with TSD-FP probe. The following applies: method of Example A-1; incubation time not stated; read-out: Binding Affinity IC50. As for the experimental part:
The reaction can be followed kinetically using fluorescence (excitation λ=485 nm; emission λ=538 nm). The binding affinity of the test compound to HSP90 is determined by the changes in the polarized fluorescence; the intensity of the polarized fluorescence is proportional to the fraction of bound probe. A novel small molecule fluorescence probe, (S,E)-5-(2-(2-amino-7-(4-fluoro-2-(6-methoxypyridin-2-yl)phenyl)-4-methyl-7,8-dihydroquinazolin-5(6H)-ylideneaminooxy)ethylcarbamoyl)-2-(6-hydroxy-3-oxo-3H-xanthen-9-yl)benzoic acid (TSD-FP probe) was specifically developed for the assay. Inhibition constants (IC50) may be calculated by non-linear curve fitting of the compound concentrations and fluorescence intensities to the standard IC50 equation.
The sequence of human wild-type HSP90a is well known in the art; see, Chen B. et al. Genomics 2005.86:627-637. The gene encoding HSP90a can be isolated from RNA, cDNA or cDNA libraries. In this case, the gene encoding residues 9-236 of image clone 5270926 of HSP90α (ATCC) was isolated. This portion of the gene encoding a section of human HSP90a that includes the N-terminal nucleotide binding domain of human HSP90a was cloned into pET28a vector (Novagen). The DNA sequence of the vector is shown in SEQ ID NO: 1. Expression from this vector produced a protein consisting of the recombinant N-terminal nucleotide binding domain of HSP90a with a cleavable 6′-histidine tag and a cleavage site at the N-terminus The amino acid sequence of this recombinant protein is shown in SEQ ID NO: 2.
Recombinant human N-terminal truncated His6-HSP90a was expressed in E. coli (BL21) cells with IPTG induction. Cell paste from 24×60 mL tubes (grown in a multi-tube airlift fermentor) was lysed using an automated sample lyser. Briefly, the pellet in each tube was suspended in 21 mL of lysis buffer consisting of 50 mM Tris pH 7.9, 50 mM NaCl, 1 mM MgCl2, 0.6 g/L Lysozyme (Sigma), 100 μL/L Benzonase (Novagen). […] After incubation, 5 M NaCl was added to bring the final salt concentration to 400 mM. The tubes were sonicated for 50 seconds and then centrifuged at 3400 rpm for 50 min. The supernatants were pooled and 4 ml of ProBond Ni resin (Invitrogen) was added. After at least 30 minutes, the resin was spun down, washed with 25 mM Tris pH 7.6, 400 mM NaCl, 20 mM imidazole, poured into a column and washed with 10 column volumes of the same buffer. The protein was eluted from the column using 3 column volumes of 25 mM Tris pH 7.6, 400 mM NaCl, 400 mM imidazole. The eluate was loaded onto a Supedex 200 column (GE Healthcare) equilibrated with 25 mM Tris pH 7.6, 250 mM NaCl, 0.25 mM TCEP, 1 mM EDTA and peak fractions were pooled and concentrated to ˜6 mg/mL using 10 kDA MWCO centrifugal concentrators (Millipore). Aliquots were flash frozen in liquid nitrogen and stored at −80° C. All purification was done at 4° C.
A fluorescein labeled small molecule was designed and synthesized as a probe (TSD-FP probe) for the determination of the binding affinity of the test compound to HSP90 proteins. The synthesis of the small molecule, (S,E)-2-amino-7-(4-fluoro-2-(6-methoxypyridin-2-yl)phenyl)-4-methyl-7,8-dihydroquinazolin-5(6H)-one O-2-aminoethyl oxime (Compound 24) was described in Examples 24 and 25 above. The TSD-FP probe was prepared according to the following procedure:
The inhibitory effect of the compounds of the invention against HSP90a was determined by fluorescence polarization assay. The assay was run in a black 384-well-plate and in an assay buffer comprising 25 mM Hepes pH 7.3, 150 mM NaCl, 0.1 mM EDTA, 0.01% Brij35, 1 mM DTT.
To each test well, an aliquot of buffer, 2 μl of test compound in 10% DMSO, 4 μl of 6.25 nM of TSD FP probe, 4 μl of 12.5 nM of purified HSP90a protein were added. […] For negative control, no inhibitor was added.
With `COc1cccc(-c2cc(F)ccc2[C@H]2Cc3nc(N)nc(C)c3/C(=N/OC[C@H]3O[C@@H](OC)[C@H](O)[C@@H]3O)N2)n1` (mixture of isomers) [Compound 45, (R,Z)-2-amino-7-(4-fluoro-2-(6-methoxypyridin-2-yl)phenyl)-4-methyl-7,8-dihydropyrido[4,3-d]pyrimidin-5(6H)-one O-((2R,3S,4R,5R)-3,4-dihydroxy-5-methoxytetrahydrofuran-2-yl)methyl oxime], the IC50 amounted to 10 nM.

Take `COc1cccc(-c2cc(F)ccc2[C@H]2Cc3nc(N)nc(C)c3/C(=N/OC[C@H](O)CO)N2)n1` [Compound 33, (R,Z)-2-Amino-7-(4-fluoro-2-(6-methoxypyridin-2-yl)phenyl)-4-methyl-7,8-dihydropyrido[4,3-d]pyrimidin-5(6H)-one O—(R)-2,3-dihydroxypropyl oxime]: the IC50 is 4 nM.

Consider `COc1cccc(-c2cc(F)ccc2[C@H]2Cc3nc(N)nc(C)c3/C(=N/OCC(CO)CO)N2)n1` [Compound 35, (R,Z)-2-Amino-7-(4-fluoro-2-(6-methoxypyridin-2-yl)phenyl)-4-methyl-7,8-dihydropyrido[4,3-d]pyrimidin-5(6H)-one O-3-hydroxy-2-(hydroxymethyl)propyl oxime], for which the IC50 stood at 13 nM.

Consider `COc1cccc(-c2cc(F)ccc2[C@H]2Cc3nc(N)nc(C)c3/C(=N/OCC[C@H](O)CO)N2)n1` [Compound 37, (R,Z)-2-amino-7-(4-fluoro-2-(6-methoxypyridin-2-yl)phenyl)-4-methyl-7,8-dihydropyrido[4,3-d]pyrimidin-5(6H)-one O—(S)-3,4-dihydroxybutyl oxime], for which the IC50 is 6 nM.

Turning to `COc1cccc(-c2cc(F)ccc2[C@H]2Cc3nc(N)nc(C)c3/C(=N/OC3C[C@@H](O)[C@@H](O)C3)N2)n1` (stereo partly drawn) [Compound 58, (7R,Z)-2-amino-7-(4-fluoro-2-(6-methoxypyridin-2-yl)phenyl)-4-methyl-7,8-dihydropyrido[4,3-d]pyrimidin-5(6H)-one O-(3R,4S)-3,4-dihydroxycyclopentyl oxime], the IC50 is 5 nM.

Consider `COc1cccc(-c2cc(F)ccc2[C@H]2Cc3nc(N)nc(C)c3/C(=N/OCC3C[C@@H](O)[C@@H](O)C3)N2)n1` (stereo partly drawn) [Compound 59, (7R,Z)-2-amino-7-(4-fluoro-2-(6-methoxypyridin-2-yl)phenyl)-4-methyl-7,8-dihydropyrido[4,3-d]pyrimidin-5(6H)-one O-((3R,4S)-3,4-dihydroxycyclopentyl)methyl oxime], for which the IC50 came to 8 nM.

For the compound `COc1cccc(-c2cc(F)ccc2[C@H]2Cc3nc(N)nc(C)c3/C(=N/O)N2)n1` [Compound 61, (R,Z)-2-amino-7-(4-fluoro-2-(6-methoxypyridin-2-yl)phenyl)-4-methyl-7,8-dihydropyrido[4,3-d]pyrimidin-5(6H)-one oxime], the IC50 turned out to be 3 nM.

With `COc1cccc(-c2cc(F)ccc2[C@H]2Cc3nc(N)nc(C)c3/C(=N/OCC3CCC(O)CC3)N2)n1` (stereo partly drawn) [Compound 65, (R,Z)-2-amino-7-(4-fluoro-2-(6-methoxypyridin-2-yl)phenyl)-4-methyl-7,8-dihydropyrido[4,3-d]pyrimidin-5(6H)-one O-((1s,4S)-4-hydroxycyclohexyl)methyl oxime], the IC50 was determined as 10 nM.

Consider `COc1cccc(-c2cc(F)ccc2[C@H]2Cc3nc(N)nc(C)c3/C(=N/OCCCO)N2)n1` [Compound 78, (R,Z)-2-amino-7-(4-fluoro-2-(6-methoxypyridin-2-yl)phenyl)-4-methyl-7,8-dihydropyrido[4,3-d]pyrimidin-5(6H)-one O-3-hydroxypropyl oxime], for which the IC50 came to 4 nM.

Take `COc1cccc(-c2cc(F)ccc2[C@H]2Cc3nc(N)nc(C)c3/C(=N/OCCCCO)N2)n1` [Compound 79, (R,Z)-2-amino-7-(4-fluoro-2-(6-methoxypyridin-2-yl)phenyl)-4-methyl-7,8-dihydropyrido[4,3-d]pyrimidin-5(6H)-one O-4-hydroxybutyl oxime]: the IC50 is 6 nM.

Regarding `COc1cccc(-c2cc(F)ccc2[C@H]2Cc3nc(N)nc(C)c3/C(=N/OCC(=O)N(C)C)N2)n1` [Compound 83, (R,Z)-2-(2-amino-7-(4-fluoro-2-(6-methoxypyridin-2-yl)phenyl)-4-methyl-7,8-dihydropyrido[4,3-d]pyrimidin-5(6H)-ylideneaminooxy)-N,N-dimethylacetamide], the IC50 amounted to 8 nM.

Consider `COc1cccc(-c2cc(F)ccc2[C@H]2Cc3nc(N)nc(C)c3/C(=N/OCC(=O)N3CC[C@@H](F)C3)N2)n1` [Compound 85, 2-((Z)—((R)-2-amino-7-(4-fluoro-2-(6-methoxypyridin-2-yl)phenyl)-4-methyl-7,8-dihydropyrido[4,3-d]pyrimidin-5(6H)-ylidene)aminooxy)-1-((R)-3-fluoropyrrolidin-1-yl)ethanone], for which the IC50 stood at 4 nM.

On to `COc1cccc(-c2cc(F)ccc2[C@H]2Cc3nc(N)nc(C)c3/C(=N/O[C@@H](CCO)C(=O)N(C)C)N2)n1` [Compound 93, (S)-2-((Z)—((R)-2-amino-7-(4-fluoro-2-(6-methoxypyridin-2-yl)phenyl)-4-methyl-7,8-dihydropyrido[4,3-d]pyrimidin-5(6H)-ylidene)aminooxy)-4-hydroxy-N,N-dimethylbutanamide], for which the concentration for half-maximal inhibition (IC50) stood at 8 nM.

With `COc1cccc(-c2cc(F)ccc2[C@H]2Cc3nc(N)nc(C)c3/C(=N/OCC(=O)N(C)C[C@H](O)CO)N2)n1` [Compound 96, 2-((Z)—((R)-2-amino-7-(4-fluoro-2-(6-methoxypyridin-2-yl)phenyl)-4-methyl-7,8-dihydropyrido[4,3-d]pyrimidin-5(6H)-ylidene)aminooxy)-N—((S)-2,3-dihydroxypropyl)-N-methylacetamide], the IC50 was determined as 13 nM.

As for `COc1cccc(-c2cc(F)ccc2[C@H]2Cc3nc(N)nc(C)c3/C(=N/OCC(=O)N(C)CCO)N2)n1` [Compound 99, (R,Z)-2-(2-amino-7-(4-fluoro-2-(6-methoxypyridin-2-yl)phenyl)-4-methyl-7,8-dihydropyrido[4,3-d]pyrimidin-5(6H)-ylideneaminooxy)-N-(2-hydroxyethyl)-N-methylacetamide], the IC50 is 8 nM.

Source of the values: US8618290B2, “HSP90 inhibitors” (Takeda Pharmaceutical Company Limited, priority 2008, dated 2013).
